Values after ≈ are worked out from the molar mass of the structure shown.
What was measured:
Galanin receptor type 3 = molecular target: T1, Galanin receptor type 3 (Homo sapiens, UniProt O60755); assay: Displacement of [125I]galanin from human galanin Gal3 receptor
T1 sequence (O60755 whole entry): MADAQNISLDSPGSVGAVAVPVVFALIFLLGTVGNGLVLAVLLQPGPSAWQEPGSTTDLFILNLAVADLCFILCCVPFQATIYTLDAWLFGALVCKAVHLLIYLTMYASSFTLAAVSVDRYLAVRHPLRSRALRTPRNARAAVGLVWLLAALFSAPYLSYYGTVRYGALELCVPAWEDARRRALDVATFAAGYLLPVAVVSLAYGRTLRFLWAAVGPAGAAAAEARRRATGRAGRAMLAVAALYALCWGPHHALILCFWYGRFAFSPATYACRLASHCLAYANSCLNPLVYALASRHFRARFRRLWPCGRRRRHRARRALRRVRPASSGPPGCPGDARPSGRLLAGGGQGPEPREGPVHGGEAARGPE

[1] = Aqueous solubility at pH 7.4; assay type: physicochemical
D(1B) dopamine receptor = D(1B) dopamine receptor (Homo sapiens, UniProt P21918); assay: Binding affinity to human dopamine D5 receptor
[2] = molecular target: T2, Alpha-1A adrenergic receptor (Homo sapiens, UniProt P35348); assay: Binding affinity to human adrenergic alpha-1A receptor
T2 sequence (P35348 whole entry): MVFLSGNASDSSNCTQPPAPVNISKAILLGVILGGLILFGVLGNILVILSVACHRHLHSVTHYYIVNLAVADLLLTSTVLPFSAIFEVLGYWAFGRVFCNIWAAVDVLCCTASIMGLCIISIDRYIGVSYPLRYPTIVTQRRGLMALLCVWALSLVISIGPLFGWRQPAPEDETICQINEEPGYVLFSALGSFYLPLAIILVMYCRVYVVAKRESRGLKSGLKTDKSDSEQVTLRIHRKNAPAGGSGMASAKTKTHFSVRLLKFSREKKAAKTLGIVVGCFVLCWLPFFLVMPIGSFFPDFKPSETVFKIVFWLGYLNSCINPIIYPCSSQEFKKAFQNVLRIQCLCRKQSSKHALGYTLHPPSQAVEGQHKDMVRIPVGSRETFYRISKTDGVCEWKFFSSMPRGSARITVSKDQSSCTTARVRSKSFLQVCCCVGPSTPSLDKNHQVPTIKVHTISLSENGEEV

Chain of D(1B) dopamine receptor (P21918 whole entry): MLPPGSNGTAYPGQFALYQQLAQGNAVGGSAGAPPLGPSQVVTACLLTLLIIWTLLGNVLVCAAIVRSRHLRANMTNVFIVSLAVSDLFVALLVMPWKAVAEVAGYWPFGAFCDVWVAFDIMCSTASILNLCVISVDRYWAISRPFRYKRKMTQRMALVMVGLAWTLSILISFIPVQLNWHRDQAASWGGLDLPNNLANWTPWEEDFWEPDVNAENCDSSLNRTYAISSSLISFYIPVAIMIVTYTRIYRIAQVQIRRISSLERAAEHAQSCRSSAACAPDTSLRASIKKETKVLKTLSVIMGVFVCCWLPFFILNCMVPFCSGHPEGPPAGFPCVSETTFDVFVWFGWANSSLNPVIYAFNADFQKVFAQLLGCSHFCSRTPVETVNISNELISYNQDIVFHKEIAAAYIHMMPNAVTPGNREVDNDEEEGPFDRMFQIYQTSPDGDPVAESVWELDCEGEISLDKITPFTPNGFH

Structure (SMILES) | Ki (Galanin receptor type 3) [nM] | solubility [1] [µg/mL] | Ki (D(1B) dopamine receptor) [nM] | Ki [2] [nM]
CCN(CC)CCOc1ccccc1N1C(=O)/C(=N/c2cccc(C(F)(F)F)c2)c2ccccc21 | 1000 | – | – | –
CCN(CC)C[C@@H](O)COc1cccc(N2C(=O)/C(=N/c3cccc(C(F)(F)F)c3)c3ccccc32)c1 | 290 | – | – | –
CCN(CC)CCCCOc1ccc(N2C(=O)/C(=N/c3cccc(C(F)(F)F)c3)c3ccccc32)cc1 | 70 | – | – | –
CCN(CC)C[C@H](O)COc1cccc(N2C(=O)/C(=N/c3cccc(C(F)(F)F)c3)c3ccccc32)c1 | 27 | 606 (≈ 1180 µM) | – | –
O=C1/C(=N/c2cccc(C(F)(F)F)c2)c2ccccc2N1c1ccccc1OCCN1CCCC1 | 790 | – | – | –
O=C1/C(=N/c2cccc(C(F)(F)F)c2)c2ccccc2N1c1cccc(OCCN2CCCCC2)c1 | 8 | 7 (≈ 14.2 µM) | – | –
CCN(CC)CCCOc1ccc(N2C(=O)/C(=N/c3cccc(C(F)(F)F)c3)c3ccccc32)cc1 | 34 | 35 (≈ 70.6 µM) | – | –
O=C1/C(=N/c2cccc(C(F)(F)F)c2)c2ccccc2N1c1ccccc1 | 17 | < 1 | – | –
CCN(CC)CCOc1ccc(N2C(=O)/C(=N/c3cccc(C(F)(F)F)c3)c3ccccc32)cc1 | 78 | – | – | –
O=C1/C(=N/c2cccc(C(F)(F)F)c2)c2ccccc2N1c1cccc(OCCCN2CCCC2)c1 | 49 | – | – | –

The next lines start with the values.

Ki (Galanin receptor type 3) [nM] | solubility [1] [µg/mL] | Ki (D(1B) dopamine receptor) [nM] | Ki [2] [nM] | Structure (SMILES)
26 | – | – | – | CN(C)CCOc1cccc(N2C(=O)/C(=N/c3cccc(C(F)(F)F)c3)c3ccccc32)c1
45 | 5 (≈ 9.81 µM) | – | – | CCN(CC)CCCCOc1cccc(N2C(=O)/C(=N/c3cccc(C(F)(F)F)c3)c3ccccc32)c1
38 | 48 (≈ 103 µM) | – | – | CCN(CC)COc1cccc(N2C(=O)/C(=N/c3cccc(C(F)(F)F)c3)c3ccccc32)c1
21 | 44 (≈ 88.8 µM) | 411 | – | CCN(CC)CCCOc1cccc(N2C(=O)/C(=N/c3cccc(C(F)(F)F)c3)c3ccccc32)c1
87 | – | – | – | CCN(CC)CCOc1cccc(N2C(=O)/C(=N/c3cccc(C(F)(F)F)c3)c3ccccc32)c1
15 | – | – | – | CCN(CC)CC(O)COc1cccc(N2C(=O)/C(=N/c3cccc(C(F)(F)F)c3)c3ccccc32)c1 (racemic)
5 | 48 (≈ 100 µM) | 939 | 78 | O=C1/C(=N/c2cccc(C(F)(F)F)c2)c2ccccc2N1c1cccc(OCCN2CCCC2)c1
89 | – | – | – | CN(C)CCOc1ccc(N2C(=O)/C(=N/c3cccc(C(F)(F)F)c3)c3ccccc32)cc1
29 | – | – | – | CN(C)CCCOc1cccc(N2C(=O)/C(=N/c3cccc(C(F)(F)F)c3)c3ccccc32)c1

From ChEMBL document CHEMBL1146013, “Amino substituted analogs of 1-phenyl-3-phenylimino-2-indolones with potent galanin Gal3 receptor binding affinity and improved solubility” (Bioorg Med Chem Lett, 2006)
